How the values were obtained:
Assay type in all cases: cell-based
ER protein [1] = target: T1, ER protein (Homo sapiens, UniProt P03372); assay: Western blotting analysis of ER protein degradation in MCF-7 cell line; set-up: western blotting detection of the level of intracellular ER protein; endogenous in cells; details: MCF-7 cells, Western blot gray values vs DMSO control
T1 sequence (P03372 1-595): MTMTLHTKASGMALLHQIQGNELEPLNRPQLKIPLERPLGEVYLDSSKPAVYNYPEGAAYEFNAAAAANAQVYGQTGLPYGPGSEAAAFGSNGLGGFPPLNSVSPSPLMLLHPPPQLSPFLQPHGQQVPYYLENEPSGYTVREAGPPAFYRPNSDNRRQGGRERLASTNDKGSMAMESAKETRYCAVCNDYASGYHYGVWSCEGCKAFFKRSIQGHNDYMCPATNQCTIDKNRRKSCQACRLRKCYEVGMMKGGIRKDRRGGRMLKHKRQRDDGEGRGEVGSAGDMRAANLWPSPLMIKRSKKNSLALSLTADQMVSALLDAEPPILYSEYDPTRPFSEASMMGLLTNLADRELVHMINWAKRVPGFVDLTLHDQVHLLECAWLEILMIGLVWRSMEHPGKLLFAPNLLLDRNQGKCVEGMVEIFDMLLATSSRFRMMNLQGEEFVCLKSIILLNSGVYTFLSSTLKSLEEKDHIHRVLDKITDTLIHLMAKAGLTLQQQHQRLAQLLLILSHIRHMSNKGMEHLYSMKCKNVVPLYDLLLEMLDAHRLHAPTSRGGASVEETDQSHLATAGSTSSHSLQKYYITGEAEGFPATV
Description: MCF-7 were cultured in ncubator with 5% CO2 at 37° C. Complete medium was EMEM supplemented with 10% FBS, 100 U/mL Penicillin and Streptomycin, and 0.77 μg/mL recombinant human insulin. […]
DC50 value (the drug concentration required for degrading proteins by 50%, abbreviated as DC50) reads method: comparing the gray values of the Western blotting bands for the drug treatment with the gray values of the Western blotting band for the DMSO control, and reading the drug concentration range corresponding to the gray value of the Western blotting bands for the drug treatment which is equal to half of the gray value of the Western blotting band for the DMSO control.
DC50 value could also be calculated as follows: using software ImageJ to quantify the gray values of the Western blotting bands for the drug treatment, fitting the relationship curve between drug concentrations and gray values, and from the fitted curve, calculating the drug concentration corresponding to half of the gray value of the Western blotting band for the DMSO control.

MCF-7 cell line = assay: Assay for determination of inhibition of MCF-7 cell proliferation (CCK-8); details: Homo sapiens, MCF7, 96 h; MCF-7 cells, 4 days, CCK-8, FIG. 3
Description: MCF-7 were cultured in ncubator with 5% CO2 at 37° C. Complete medium was EMEM supplemented with 10% FBS, 100 U/mL Penicillin and Streptomycin, and 0.77 μg/mL recombinant human insulin.
10 μL CCK-8 reagent was added to the test well without adding the drugs, and after 4 h the O.D.value of the test well was recorded as the initial cell level. • After 4 days, 10 μL CCK-8 reagent was added, and the O.D.values was measured, and inhibition level was calculated.

ER protein [2] = target: T1, ER protein; assay: Western blotting analysis of ER protein degradation in T47D cell line; set-up: western blotting detection of the level of intracellular ER protein; endogenous in cells; host or cells: T47D; details: degradation of ER protein, T47D cells, drug treatment for 16 hours, Western blot gray values vs DMSO control; read-out: DC50 (nM)/T47Dcell line
Outline: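 T47D cells seeded at 1.5×10^5 cells/mL, adhered 24 h, then treated with compound; ER protein level read by Western blot band gray value versus DMSO control. DC50 taken as concentration giving half the control gray value, read from bands or from a fitted concentration–gray value curve.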

Cc1ncsc1-c1ccc(CNC(=O)[C@@H]2C[C@@H](O)CN2C(=O)[C@@H](NC(=O)CCCCCCCC(=O)NCCOc2ccc(C(=C(CCCl)c3ccccc3)c3ccc(O)cc3)cc2)C(C)(C)C)cc1 [SIAIS208035, N1-(2-(4-(4-chloro-1-(4-hydroxyphenyl)-2-phenylbut-1-en-1-yl)phenoxy)ethyl)-N9-((S)-1-((2S,4R)-4-hydroxy-2-((4-(4-methylthiazol-5-yl)benzyl)carbamoyl)pyrrolidin-1-yl)-3,3-dimethyl-1-oxobutan-2-yl)nonanediamide]
DC50 (ER protein [1]): < 10 nM
IC50 (MCF-7 cell line): 0.75 nM
DC50 (ER protein [2]): < 10 nM

CCC(=C(c1ccc(O)cc1)c1ccc(OCCNC(=O)CCCCCCCCC(=O)N[C@H](C(=O)N2C[C@H](O)C[C@H]2C(=O)NCc2ccc(-c3scnc3C)cc2)C(C)(C)C)cc1)c1ccc(O)cc1 [SIAIS208168, N1-(2-(4-(1,2-bis(4-hydroxyphenyl)but-1-en-1-yl)phenoxy)ethyl)-N10-((S)-1-((2S,4R)-4-hydroxy-2-((4-(4-methylthiazol-5-yl)benzyl)carbamoyl)pyrrolidin-1-yl)-3,3-dimethyl-1-oxobutan-2-yl)decanediamide]
IC50 (MCF-7 cell line): 0.75 nM
DC50 (ER protein [2]): < 1 nM

CCC(=C(c1ccc(O)cc1)c1ccc(OCCNC(=O)CCOCCOCCC(=O)N[C@H](C(=O)N2C[C@H](O)C[C@H]2C(=O)NCc2ccc(-c3scnc3C)cc2)C(C)(C)C)cc1)c1ccc(O)cc1 [SIAIS208173, (2S,4R)-1-((S)-16-(4-(1,2-bis(4-hydroxyphenyl)but-1-en-1-yl)phenoxy)-2-(tert-butyl)-4,13-dioxo-7,10-dioxa-3,14-diazahexadecanoyl)-4-hydroxy-N-(4-(4-methylthiazol-5-yl)benzyl)pyrrolidine-2-carboxamide]
IC50 (MCF-7 cell line): 3.6 nM
DC50 (ER protein [2]): < 10 nM

Cc1ncsc1-c1ccc(CNC(=O)[C@@H]2C[C@@H](O)CN2C(=O)[C@@H](NC(=O)CCCCCCC(=O)N2CCN(CCOc3ccc(C(=C(CCCl)c4ccccc4)c4ccc(O)cc4)cc3)CC2)C(C)(C)C)cc1 [SIAIS251045, (2S,4R)-1-((S)-2-(8-(4-(2-(4-(4-chloro-1-(4-hydroxyphenyl)-2-phenylbut-1-en-1-yl)phenoxy)ethyl)piperazin-1-yl)-8-oxooctanamido)-3,3-dimethylbutanoyl)-4-hydroxy-N-(4-(4-methylthiazol-5-yl)benzyl)pyrrolidine-2-carboxamide]
IC50 (MCF-7 cell line): 4.2 nM
DC50 (ER protein [2]): < 10 nM

CN(C)CCOc1ccc(/C(=C(/CCCl)c2ccccc2)c2ccccc2)cc1 [Toremifene, reference compound]
IC50 (MCF-7 cell line): 869 nM

Source: patent publication US20220016102A1, “ER PROTEIN REGULATORS AND USE THEREOF” (ShanghaiTech University, priority 2018, published 2022)
